# Values joined by “and” are separate entries in the source; they are usually repeats but may differ in a detail not shown here. Equal values may be shown once.
# Columns and labels:
# [1] = biological target: T1, mouse SNORF33 (Mus musculus, UniProt Q923Y8); assay: [3H]-TYR binding (saturation and displacement) to mouse SNORF33 COS-7 membranes; settings: mouse SNORF33, displacement of [3H]TYR; read-out: Ki (individual determinations)
# T1 construct: expressed in transfected cells; host or cells: COS-7 (membranes)
# Experimental: (§1) [^3H]-TYR and [^3H]-T binding assays were performed essentially as described by Mallard et al. (1992), with minor modifications. Radioligand binding assays were performed by diluting membranes prepared from cells expressing the receptor (with co-expression of the rat G-protein alpha S subunit for human SNORF33) in 25 mM Gly-Gly buffer (Sigma, pH=7.4 @ 0° C.) containing 5 mM ascorbate and 10 μM pargyline (final protein concentration in assay=100-300 μg/ml). Membranes were then incubated with either [^3H]-TYR (American Radiochemicals, specific activity 60 mCi/μmole) or [^3H]-T (Amersham, specific activity 98 mCi/μmole) in the presence or absence of competing ligands on ice for 30 min in a total volume of 250 μl in 96 well microtiter plates. The bound ligand was separated from free by filtration through GF/B filters presoaked in 0.5% polyethyleneimine (PEI), using Tomtec (Wallac) or Brandel Cell Harvester vacuum filtration device. After addition of Ready Safe (Beckman) scintillation fluid, bound radioactivity was quantitated using a Trilux (Wallac) scintillation counter (approximately 20% counting efficiency of bound counts). Data was fit to non-linear curves using GraphPad Prism.
# (§2) In this manner, agonist or antagonist compounds that bind to the receptor may be identified as they inhibit the binding of the labeled ligand to the membrane protein of cells expressing the said receptor. Non-specific binding was defined as the amount of radioactivity remaining after incubation of membrane protein in the presence of 10 μM of the unlabeled amine corresponding to the radioligand used. In equilibrium saturation binding assays, membrane preparations or intact cells transfected with the receptor are incubated in the presence of increasing concentrations of the labeled compound to determine the binding affinity of the labeled ligand. The binding affinities of unlabeled compounds may be determined in equilibrium competition binding assays, using a fixed concentration of labeled compound in the presence of varying concentrations of the displacing ligands.
# [2] = biological target: T1, mouse SNORF33; assay: cAMP assay at mouse SNORF33; assay type: cell-based
# Experimental: (§3) The receptor-mediated stimulation or inhibition of cyclic AMP (cAMP) formation may be assayed in cells expressing the mammalian receptors. Cells are plated in 96-well plates or other vessels and preincubated in a buffer such as HEPES buffered saline (NaCl (150 mM), CaCl2 (1 mM), KCl (5 mM), glucose (10 mM)) supplemented with a phosphodiesterase inhibitor such as 5 mM theophylline, with or without protease inhibitor cocktail (For example, a typical inhibitor cocktail contains 2 μg/ml aprotinin, […] leupeptin, and 10 μg/ml phosphoramidon.) for 20 min at 37° C., in 5% CO2. Test compounds are added with or without […] forskolin and incubated for an additional 10 min at 37° C. The medium is then aspirated and the reaction stopped by the addition of 100 mM HCl or other methods. The plates are stored at 4° C. for 15 min, and the cAMP content in the stopping solution is measured by radioimmunoassay. Radioactivity may be quantified using a gamma counter equipped with data reduction software. Specific modifications may be performed to optimize the assay for the receptor or to alter the detection method of cAMP.
# (§4) COS-7 cells were transiently transfected with rSNORF33 gene using the calcium phosphate method and plated in 96-well plates. 48 hours after transfection, cells were washed twice with Dulbecco's phosphate buffered saline (PBS) supplemented with 10 mM HEPES, 10 mM glucose, 5 mM theophylline and 10 μM pargyline and were incubated in the same buffer for 20 min at 37° C., in […] 5% CO2. Test compounds were added and cells were incubated for an additional 10 min at 37° C. The medium was then aspirated and the reaction stopped by the addition of 100 mM HCl. The plates were stored at −20° C. for 2-5 days. For cAMP measurement, plates were thawed and the cAMP content in each well was measured by radioimmunoassay cAMP Scintillation Proximity Assay (Amersham Pharmacia Biotech). Radioactivity was quantified using microbeta Trilux counter (Wallac).
# [3] = biological target: T2, rSNORF33 (Rattus norvegicus, UniProt Q923Y9); assay: Intracellular cAMP release in rSNORF33-transfected COS-7 cells; assay type: cell-based; parameters: expressed in transfected cells; host or cells: COS-7 (transient)
# Experimental: as §3, §4
# [4] = biological target: T2, rSNORF33; assay: [3H]-TYR binding (saturation and displacement) to rSNORF33-transfected COS-7 membranes; parameters: expressed in transfected cells; host or cells: COS-7 (transient); settings: rSNORF33 in transfected COS-7 membranes; 2–4 experiments; read-out: Mean Ki ± S.D.M., displacement of [3H]-tyramine
# Experimental: as §1, with “Radioligand” for “[^3H]-TYR and [^3H]-T binding assays were performed essentially as described by Mallard et al. (1992), with minor modifications. Radioligand”
# as §2
# [5] = biological target: T3, hSNORF33 (Homo sapiens, UniProt Q96RJ0); assay: [3H]-TYR binding (saturation and displacement) to human SNORF33 COS-7 membranes; parameters: expressed in transfected cells; host or cells: COS-7 (membranes); settings: human SNORF33 in transfected COS-7 membranes; read-out: Mean Ki ± S.D.M., displacement of [3H]-tyramine
# T3 sequence (Q96RJ0 1-339): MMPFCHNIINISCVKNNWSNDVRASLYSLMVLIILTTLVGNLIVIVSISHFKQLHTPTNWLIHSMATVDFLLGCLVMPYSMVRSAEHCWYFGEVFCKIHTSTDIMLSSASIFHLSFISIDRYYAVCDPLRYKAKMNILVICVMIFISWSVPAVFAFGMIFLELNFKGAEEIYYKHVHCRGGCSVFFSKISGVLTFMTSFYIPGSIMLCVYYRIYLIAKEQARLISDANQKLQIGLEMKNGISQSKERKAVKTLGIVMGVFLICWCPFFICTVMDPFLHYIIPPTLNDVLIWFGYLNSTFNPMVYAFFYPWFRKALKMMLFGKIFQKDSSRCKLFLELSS
# Experimental: as §1, §2
# [6] = biological target: T3, hSNORF33; assay: Intracellular cAMP release in human SNORF33-transfected COS-7 cells; assay type: cell-based; parameters: expressed in transfected cells; host or cells: COS-7 (transient)
# Experimental: as §3, §4
# T1 sequence (Q923Y8 whole entry): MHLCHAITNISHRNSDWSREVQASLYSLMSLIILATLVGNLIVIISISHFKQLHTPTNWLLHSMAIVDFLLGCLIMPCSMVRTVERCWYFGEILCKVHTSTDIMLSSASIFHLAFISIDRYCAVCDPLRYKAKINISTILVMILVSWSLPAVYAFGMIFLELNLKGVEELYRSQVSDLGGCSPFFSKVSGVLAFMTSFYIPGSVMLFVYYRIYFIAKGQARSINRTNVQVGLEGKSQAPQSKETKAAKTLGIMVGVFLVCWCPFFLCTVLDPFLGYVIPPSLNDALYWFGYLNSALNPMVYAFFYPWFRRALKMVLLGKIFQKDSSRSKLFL
# T2 sequence (Q923Y9 whole entry): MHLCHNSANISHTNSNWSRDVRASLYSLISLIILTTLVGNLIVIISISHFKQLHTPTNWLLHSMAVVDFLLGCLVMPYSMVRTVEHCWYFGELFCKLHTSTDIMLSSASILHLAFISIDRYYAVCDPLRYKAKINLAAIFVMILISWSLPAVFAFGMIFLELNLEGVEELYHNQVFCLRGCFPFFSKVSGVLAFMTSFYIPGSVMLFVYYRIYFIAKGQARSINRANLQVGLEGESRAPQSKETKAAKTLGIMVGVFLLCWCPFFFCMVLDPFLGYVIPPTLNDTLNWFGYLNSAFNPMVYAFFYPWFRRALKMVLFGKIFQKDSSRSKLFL
compound,measurement,setting,value
"NCCc1ccccc1 [β-Phenylethylamine (PEA), β-Phenylethylamine]",Ki,[1],0.019 µM and 0.047 µM
same,Agonism in the cAMP assay,[2],full agonists
same,EC50,[3],0.01 ± 0.001 µM
same,Ki,[4],0.056 ± 0.021 µM
same,Ki,[5],0.008 ± 0.006 µM
same,EC50,[6],0.216 ± 0.149 µM

# — patent US7517658B2, “Methods for preparing compositions using a SNORF33 receptor” (H. Lundbeck A/S, priority 1999, dated 2009)
